Measurements reported in patent publication US20190374554A1, “USE OF OXYGENATED CHOLESTEROL SULFATES (OCS) TO TREAT INFLAMMATORY SKIN DISEASE AND SKIN LESIONS” (Virginia Commonwealth University, priority 2016, published 2019).
“Also recorded” adds a separate entry of the source.

Key:
[1] = First cadaver skin flux study (radiolabelled 25HC3S, diffusion cells, % dose recovered); assay type: in vitro ADME; settings: from comparison of formulations in cadaver skin study
Protocol: The formulations shown in the below Table 22 were made. Each of the below formulations containing drug included 1 wt % non-radiolabelled 25HC3S since the maximum drug loading achieved in Carbopol based creams or gels was 1 wt %. In positive control C1, 20 wt % DMSO was included in EtOH to achieve 1 wt % drug loading.
The procedure for mixing radiolabelled C^14-25HC3S with each formulation was as follows. Formulation (1 mL of each) was placed into 1 mL vials. To each vial was added 5 μL EtOH containing hot material ([…] radiolabelled 25HC3S). The mixture was mixed using a small plunger for 4 to 5 minutes until uniform.
The above formulations were tested on cadaver skin as follows. Dermatomed cadaver skin was obtained from thigh and abdominal areas. A total of 4 donor skin samples (4 separate experiments) were used in the study. Skin samples were placed on diffusion cells (see below) at least 2 hours prior to dosing. Skin sample integrity was examined by measuring […] water loss (TEWL).
The diffusion cells had 1 cm^2 surface area. Each sample at each testing point had 2-3 replicates.
The dose was 10-25 μL of formulation each containing 0.2-0.5 μCi radioactivity per diffusion cell.
The receptor fluid was 6% PEG 400 in PBS. The receptor fluid flow rate was continuous flow at 4.7 mL/hr.
For dose application, the net amount was determined by weight difference before and after dosing application.
The total skin exposure time was 24 hours. After 8 hours of skin exposure, skin surface dose residues were removed by 5% soap-water washing as follows: (1) two times with small cotton balls wetted with 5% clear Ivory® liquid soap (Proctor and Gamble); and (2) two times with cotton balls wetted with distilled de-ionized water to recover the residual drug content, and a final drying with a dry cotton ball. After 16 hours of additional skin exposure (after skin washing), the experiment was finished.
The dosed skin was first tape stripped 10 times followed with heat separation of viable epidermis and dermis. Receptor fluid samples were collected at 30 min, 1 hour, 2 hour, and every 2 hours until the end of the experiment. All samples were counted for radioactivity

[2] = tested on: chronic dermatitis; assay: Case report: topical therapy of chronic dermatitis following poison ivy attack; assay type: in vivo, Human; settings: one person, topical once every three days, three applications
Protocol: A case report: A volunteer had been suffering from chronic dermatitis with intense itching following a poison ivy attack two years earlier. The affected area was externally treated with 0.5 ml of 5 mg/ml of 25HC3S sodium salt in a body lotion (Cococare®, Vitamin E Cream) once every three days for a total of three applications.

| Compound | trend as permeation enhancer (PE) [1] | itching, redness and swelling ([2]; 0.5 ml of 5 mg/ml in body lotion (Cococare Vitamin E Cream)) | skin recovery ([2]; 0.5 ml of 5 mg/ml in body lotion) |
| --- | --- | --- | --- |
| CCO [EtOH, ethanol] | high PE; also recorded: great permeation enhancer |  |  |
| PEG 400 | poor permeation enhancer |  |  |
| CC(O)CO (stereo not drawn) [PG, propylene glycol] | may be about the same as OA; also recorded: good permeation enhancer |  |  |
| C[C@H](CCCC(C)(C)O)[C@H]1CC[C@H]2[C@@H]3CC=C4CC(OS(=O)(=O)[O-])CC[C@]4(C)[C@H]3CC[C@]12C.[Na+] (stereo partly drawn) [25HC3S sodium salt, 5-cholesten-3, 25-diol, 3-sulfate] |  | Within two days, the itching subsided, and redness and swelling decreased | almost completely recovered in 10 days |
| CCCCCCCCCCCCOC(=O)C(C)O (stereo not drawn) [LL, Lauryl lactate] | may be more effective than PG |  |  |
